In patent US7501430B2 (ArQule, Inc., priority 2006, dated 2009):

target: T1, mutant B-RAF (Homo sapiens, UniProt P15056, V600E); test: RAF biochemical assay (MEK-1 phosphorylation, anti-phospho MEK1/2 detection); conditions: not given
T1 construct: purchased Upstate (Charlottesville, Va.)
Method in brief: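 Detection is by ELISA: after a 30 min room-temperature reaction, plate-captured GST-MEK-1 is probed with anti-phospho MEK1/2, then an AP-tagged secondary antibody with fluorescent Attophos read-out.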

T1 sequence (P15056 whole entry V600E): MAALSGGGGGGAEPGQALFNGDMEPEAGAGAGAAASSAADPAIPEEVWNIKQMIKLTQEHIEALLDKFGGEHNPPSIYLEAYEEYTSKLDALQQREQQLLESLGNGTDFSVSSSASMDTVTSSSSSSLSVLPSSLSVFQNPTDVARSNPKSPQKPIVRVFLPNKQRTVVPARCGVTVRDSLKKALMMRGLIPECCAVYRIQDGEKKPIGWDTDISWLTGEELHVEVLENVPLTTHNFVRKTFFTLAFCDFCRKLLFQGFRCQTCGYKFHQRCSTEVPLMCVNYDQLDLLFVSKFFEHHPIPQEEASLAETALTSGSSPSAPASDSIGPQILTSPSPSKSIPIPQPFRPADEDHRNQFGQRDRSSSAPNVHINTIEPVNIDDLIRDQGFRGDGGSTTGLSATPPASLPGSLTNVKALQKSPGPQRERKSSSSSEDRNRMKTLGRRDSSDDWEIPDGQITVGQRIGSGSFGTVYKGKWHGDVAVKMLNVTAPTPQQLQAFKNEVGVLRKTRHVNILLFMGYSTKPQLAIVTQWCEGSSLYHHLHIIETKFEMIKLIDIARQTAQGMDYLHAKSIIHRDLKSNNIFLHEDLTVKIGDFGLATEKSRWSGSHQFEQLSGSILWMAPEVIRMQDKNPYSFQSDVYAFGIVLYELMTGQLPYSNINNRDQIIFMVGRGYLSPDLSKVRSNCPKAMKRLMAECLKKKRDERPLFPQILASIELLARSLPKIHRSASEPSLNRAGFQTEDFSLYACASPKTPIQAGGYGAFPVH

Compound	IC50
Cc1ccc(S(=O)(=O)N2CCC[C@@H](Nc3nccc(-c4c(-c5ccc(F)cc5)nc5occn45)n3)C2)cc1 [Example 45, 4-[6-(4-fluorophenyl)imi-dazo[2,1-b][1,3]oxazol-5-yl]-N-{(3R)-1-[(4-methylphenyl)sulfonyl]piperidin-3-yl}pyr-imidin-2-amine]	590 nM

same assay, conditions: @ 3 uM

inhibition at 3 µM	Compound
48%	O=S(=O)(c1ccc(Cl)cc1)N1CCC[C@@H](Nc2nccc(-c3c(-c4ccc(F)c(F)c4)nc4sccn34)n2)C1 [Example 114, N-{(3R)-1-[(4-chlorophenyl)sulfonyl]piperidin-3-yl}-4-[6-(3,4-difluorophenyl)imidazo[2,1-b][1,3]thiazol-5-yl]pyrimidin-2-amine]

same assay, conditions: @ 10 uM; read-out: Mutant B-RAF % inhibition

inhibition at 10 µM	Compound
40%	COc1cccc(-c2nc3sccn3c2-c2ccnc(N[C@@H]3CCCN(C(=O)NCc4ccccc4)C3)n2)c1 [Example 80, (3R)-N-benzyl-3-({4-[6-(3-methoxyphenyl)imidazo[2,1-b][1,3]thiazol-5-yl]pyrimidin-2-yl}amino)piperidine-1-carboxamide]
35%	O=S(=O)(c1cccc(Cl)c1)N1CCC[C@@H](Nc2nccc(-c3c(-c4ccc(F)cc4)nc4occn34)n2)C1 [Example 50, N-{(3R)-1-[(3-chlorophenyl)sulfonyl]piper-idin-3-yl}-4-[6-(4-fluorophenyl)imidazo[2,1-b][1,3]oxazol-5-yl]pyrimidin-2-amine]
61%	Cc1cn2c(-c3ccnc(N[C@@H]4CCCN(C(=O)NCc5ccco5)C4)n3)c(-c3ccc(F)cc3)nc2s1 [Example 93, (3R)-3-({4-[6-(4-fluoro-phenyl)-2-methylimidazo[2,1-b][1,3]thiazol-5-yl]pyrimidin-2-yl}amino)-N-(2-furylmethyl)piperidine-1-carboxamide]
30%	Fc1ccc(-c2nc3sccn3c2-c2ccnc(N[C@H]3CCNC3)n2)cc1 [Example 275, 4-[6-(4-fluorophenyl)imidazo[2,1-b][1,3]thiazol-5-yl]-N-[(3S)-pyrrolidin-3-yl]pyrimidin-2-amine]
42%	Cc1nc(C)c(S(=O)(=O)N2CCC[C@@H](Nc3nccc(-c4c(-c5ccc(F)cc5)nc5occn45)n3)C2)s1 [Example 65, N-{(3R)-1-[(2,4-dimethyl-1,3-thiazol-5-yl)sulfonyl]piper-idin-3-yl}-4-[6-(4-fluorophenyl)imidazo[2,1-b][1,3]oxazol-5-yl]pyrimidin-2-amine]

same assay, conditions: read-out: Mutant B-RAF IC50

Compound	IC50
COc1cccc(-c2nc3sccn3c2-c2ccnc(N[C@@H]3CCCN(C(=O)CC(C)C)C3)n2)c1 [Example 109, 4-[6-(3-methoxyphenyl)imidazo[2,1-b][1,3]thiazol-5-yl]-N-[(3R)-1-(3-methylbutanoyl)piperidin-3-yl]pyrimidin-2-amine]	> 3000 nM
NC(=O)c1cccc(-c2nc3sccn3c2-c2ccnc(N[C@@H]3CCCN(S(=O)(=O)c4ccc(Cl)cc4)C3)n2)c1 [Example 350, 3-{5-[2-({(3R)-1-[(4-chlorophenyl)sulfonyl]piperidin-3-yl}amino)pyrimidin-4-yl]imidazo[2,1-b][1,3]thiazol-6-yl}benzamide]	140 nM
O=C(O)c1ccc(-c2nc3sccn3c2-c2ccnc(N[C@@H]3CCCN(S(=O)(=O)c4ccc(Cl)cc4)C3)n2)cc1 [Example 127, 4-{5-[2-({(3R)-1-[(4-chlorophenyl)sulfonyl]piperidin-3-yl}amino)pyrimidin-4-yl]imidazo[2,1-b][1,3]thiazol-6-yl}benzoic acid]	> 3000 nM
N[C@@H](CCC(=O)O)C(=O)N1CCC(Nc2nccc(-c3c(-c4ccc(F)cc4)nc4occn34)n2)CC1 [Example 196, (4S)-4-amino-5-[4-({4-[6-(4-fluorophenyl)imidazo[2,1-b][1,3]oxazol-5-yl]pyrimidin-2-yl}amino)piperidin-1-yl]-5-oxopentanoic acid]	3320 nM
NS(=O)(=O)Oc1cccc(-c2nc3sccn3c2-c2ccnc(N[C@@H]3CCCN(S(=O)(=O)c4ccc(Cl)cc4)C3)n2)c1 [Example 377, 3-{5-[2-({(3R)-1-{(4-chlorophenyl)sulfonyl]piperidin-3-yl}amino)pyrimidin-4-yl]imidazo[2,1-b][1,3]thiazol-6-yl}phenyl sulfamate]	85 nM
CS(=O)(=O)Nc1cccc(-c2nc3sccn3c2-c2ccnc(N[C@@H]3CCCN(S(=O)(=O)c4ccc(Cl)cc4)C3)n2)c1 [Example 346, N-(3-{5-[2-({(3R)-1-[(4-chlorophenyl)sulfonyl]piperidin-3-yl}amino)pyrimidin-4-yl]imidazo[2,1-b][1,3]thiazol-6-yl}phenyl)methanesulfonamide]	880 nM
O=S(=O)(c1ccc(O)cc1)N1CCC[C@@H](Nc2nccc(-c3c(-c4cccc(O)c4)nc4sccn34)n2)C1 [Example 150, 3-{5-[2-({(3R)-1-[(4-hydroxyphenyl)sulfonyl]piperidin-3-yl}amino)pyrimidin-4-yl]imidazo[2,1-b][1,3]thiazol-6-yl}phenol]	9 nM
O=C(NCc1ccccc1)N1CCC(Nc2nccc(-c3c(-c4ccc(F)cc4)nc4occn34)n2)CC1 [Example 170, N-benzyl-4-({4-[6-(4-fluorophenyl)imidazo[2,1-b][1,3]oxazol-5-yl]pyrimidin-2-yl}amino)piperidine-1-carboxamide]	189 nM

Now from value to compound:

IC50	Compound
2360 nM	Fc1ccc(-c2nc3sccn3c2-c2ccnc(NC3CCNCC3)n2)cc1 [Example 155, 4-[6-(4-fluorophenyl)imidazo[2,1-b][1,3]thiazol-5-yl]-N-piperidin-4-ylpyrimidin-2-amine]
58 nM	O=S(=O)(c1ccc(F)cc1)N1CCC[C@@H](Nc2nccc(-c3c(-c4ccc(F)c(F)c4)nc4sccn34)n2)C1 [Example 85, 4-[6-(3,4-difluorophenyl)imidazo[2,1-b][1,3]thiazol-5-yl]-N-{(3R)-1-[(4-fluorophenyl)sulfonyl]piperidin-3-yl}pyrimidin-2-amine]
> 1000 nM	NC(=O)N1CCC(Nc2nccc(-c3c(-c4ccc(F)cc4)nc4occn34)n2)CC1 [Example 256, 4-({4-[6-(4-fluorophenyl)imidazo[2,1-b][1,3]oxazol-5-yl]pyrimidin-2-yl}amino)piperidine-1-carboxamide]
78 nM	O=S(=O)(c1ccc(F)cc1)N1CCC(Nc2nccc(-c3c(-c4ccc(F)cc4)nc4sccn34)n2)CC1 [Example 153, 4-[6-(4-fiuorophenyl)imidazo[2,1-b][1,3]thiazol-5-yl]-N-{1-[(4-fluorophenyl)sulfonyl]piperidin-4-yl}pyrimidin-2-amine]
428 nM	CCNC(=O)N1CCC(Nc2nccc(-c3c(-c4ccc(F)cc4)nc4sc(C)cn34)n2)CC1 [Example 220, N-ethyl-4-({4-[6-(4-fluorophenyl)-2-methylimidazo[2,1-b][1,3]thiazol-5-yl]pyrimidin-2-yl}amino)piperidine-1-carboxamide]
> 3000 nM	O=S(=O)(c1ccc(Cl)cc1)N1CCC(Nc2nccc(-c3c(-c4ccc(F)c(F)c4)nc4sccn34)n2)CC1 [Example 265, N-{1-[(4-chlorophenyl)sulfonyl]piperidin-4-yl}-4-[6-(3,4-difluorophenyl)imidazo[2,1-b][1,3]thiazol-5-yl]pyrimidin-2-amine]
1150 nM	NCC(=O)N1CCC(Nc2nccc(-c3c(-c4ccc(F)cc4)nc4occn34)n2)CC1 [Example 190, N-[1-(aminoacetyl)piperidin-4-yl]-4-[6-(4-fluorophenyl)imidazo[2,1-b][1,3]oxazol-5-yl]pyrimidin-2-amine]
